Measured values published in JP2011135835A, “ダンマラン系トリテルペン類含有組成物及び呈味改善方法” (Lion Corp, priority 2009, dated 2011).

Assay: physchem
Format: physicochemical
Conditions: for residual rate: after standing 3 weeks at 40°C, 75% relative humidity, HPLC

| SMILES | residual rate | remaining at 504 h [%] |
| --- | --- | --- |
| CC(C)=CCC[C@](C)(O)[C@H]1CC[C@]2(C)[C@@H]1[C@H](O)C[C@@H]1[C@@]3(C)CC[C@H](O)C(C)(C)[C@@H]3[C@@H](O)C[C@]12C [PPT, プロトパナキサトリオール] | 検出されなかった | – |
| CC1(C)CCC[C@](C)([C@H]2CC[C@]3(C)[C@@H]2[C@H](O)C[C@@H]2[C@@]4(C)CC[C@H](O)C(C)(C)[C@@H]4[C@@H](O)C[C@]23C)O1 [PT, パナキサトリオール] | – | 99.8 |
| CC1(C)CCC[C@](C)([C@H]2CC[C@]3(C)[C@@H]2[C@H](O)C[C@@H]2[C@@]4(C)CC[C@H](O)C(C)(C)[C@@H]4CC[C@]23C)O1 [PD, パナキサジオール] | – | 99.7 |
| CC(C)=CCC[C@](C)(O)[C@H]1CC[C@]2(C)[C@@H]1[C@H](O)C[C@@H]1[C@@]3(C)CC[C@H](O)C(C)(C)[C@@H]3CC[C@]12C [PPD, プロトパナキサジオール] | 検出されなかった | – |
